The values that follow come from patent publication US20130053430A1, “MODULATION OF CETP EXPRESSION” (Isis Pharmaceuticals, Inc., priority 2010, published 2013).

The subject of data set [1] is human CETP mRNA. Nature of the data set: Antisense inhibition of human CETP mRNA in SW872 liposarcoma cells (Example 1). Particulars: 150 nM antisense oligonucleotide, lipofectin, ~24 hours, relative to untreated control cells. The data set is classed as cell-based. Here is the method: Antisense oligonucleotides targeted to a CETP nucleic acid were tested for their effect on CETP mRNA transcript in vitro. Cultured SW872 liposarcoma cells at a density of 50,000 cells per well in a 24-well plate were transfected using lipofectin reagent with 150 nM antisense oligonucleotide. After approximately 24 hours, RNA was isolated from the cells and CETP mRNA levels were measured by quantitative real-time PCR. A human primer probe set (forward sequence […], designated herein as SEQ ID NO: 38; reverse sequence GGCTCACGCCTTTGCTGTT, designated herein as SEQ ID NO: 39; probe sequence […], designated herein as SEQ ID NO: 40) was used to quantitate CETP mRNA. CETP mRNA transcript levels were adjusted according to total RNA content, as measured by the house-keeping gene, GAPDH mRNA levels. GAPDH was measured using a primer probe set with the sequence as set forth in SEQ ID NOs: 10, 11, 13. Results are presented as percent inhibition of CETP, relative to untreated control cells.
The antisense oligonucleotides in Table 3 are 5-10-5 gapmers, where the gap segment comprises ten 2′-deoxynucleosides and each wing segment comprises five 2′-MOE nucleosides. Each nucleotide in the 5′ wing segment and each nucleotide in the 3′ wing segment has a 2′-MOE modification. The internucleoside linkages throughout each gapmer are phosphorothioate (P═S) linkages. All cytosine residues throughout each gapmer are 5-methylcytosines. ‘Target start site’ indicates the 5′-most nucleotide to which the antisense oligonucleotide is targeted. ‘Target stop site’ indicates the 3′-most nucleotide to which the antisense oligonucleotide is targeted. All the antisense oligonucleotides listed in Table 3 target human CETP mRNA, designated herein as SEQ ID NO: 1 (GENBANK Accession No. M30185.1).

Data set [2] deals with human CETP mRNA. Put plainly: Antisense inhibition of human CETP mRNA in primary hepatocytes from huCETP transgenic mice (Example 4). The data set is classed as cell-based, mouse. Particulars: cytofectin, ~24 hours. Here is the method: Transgenic mice expressing human CETP, controlled by its natural flanking region, increase expression of this gene in response to hypercholesterolemia (Jiang, X. C. et al., J. Clin. Invest. 1992. 90: 1290-1295). These mice were utilized for the following studies. Antisense oligonucleotides targeted to a CETP nucleic acid and described in Example 1 were tested for their effect on CETP mRNA transcript in vitro. Cultured primary hepatocytes from huCETP transgenic mice, at a density of 17,500 cells per well in a 96-well plate, were transfected using cytofectin reagent with 100 nM or 200 nM antisense oligonucleotide. After approximately 24 hours, RNA was isolated from the cells and CETP mRNA levels were measured by quantitative real-time PCR. CETP mRNA transcript levels were adjusted according to total RNA content, as measured by the house-keeping gene, GAPDH mRNA levels. Results are presented in Table 6 as percent inhibition of CETP, relative to untreated control cells.

Strand notation (5' to 3'): a small letter for the sugar, then the base; units joined by * are phosphorothioate-linked, units joined directly phosphodiester-linked; [ ] holds rarer units or linkages, { } end groups; capitals alone tell only the bases. e = 2'-O-(2-methoxyethyl) (MOE); [5mC] = 5-methylcytosine; d = 2'-deoxy (DNA)

For orientation: % inhibition means how much of the control response was suppressed. Read a high % inhibition as a strong effect.

As for “ISIS 349488: 5-10-5 MOE gapmer GCACTGCCTTGAACTCGTCT (eG*e[5mC]*eA*e[5mC]*eT*dG*d[5mC]*d[5mC]*dT*dT*dG*dA*dA*d[5mC]*dT*e[5mC]*eG*eT*e[5mC]*eT)”, the “% inhibition” value in the data set on human CETP mRNA [1] is 47%. In addition, the entries for the “Percent inhibition of human CETP mRNA” value in the data set with human CETP mRNA [2] (100 nM) and in the data set with human CETP mRNA [2] (200 nM) were 77% and 87%, respectively.
On the same counts, the results for “ISIS 349489: 5-10-5 MOE gapmer GTTGAAGCCCCAGGTCTCCA (eG*eT*eT*eG*eA*dA*dG*d[5mC]*d[5mC]*d[5mC]*d[5mC]*dA*dG*dG*dT*e[5mC]*eT*e[5mC]*e[5mC]*eA)” are 48%, 47% and 67%.
Turning to “ISIS 349491: 5-10-5 MOE gapmer AGCCGCCGACAACCTCTTGG (eA*eG*e[5mC]*e[5mC]*eG*d[5mC]*d[5mC]*dG*dA*d[5mC]*dA*dA*d[5mC]*d[5mC]*dT*e[5mC]*eT*eT*eG*eG)”, the “% inhibition” value in the data set on human CETP mRNA [1] worked out at 45%. Besides, the figures for the “Percent inhibition of human CETP mRNA” value with human CETP mRNA [2] (100 nM) and with human CETP mRNA [2] (200 nM) were 60% and 74%, respectively.
For “ISIS 349492: 5-10-5 MOE gapmer GGCATCTTGAGGCAGTGGAC (antisense eG*eG*e[5mC]*eA*eT*d[5mC]*dT*dT*dG*dA*dG*dG*d[5mC]*dA*dG*eT*eG*eG*eA*e[5mC])”, the “% inhibition” value in the data set on human CETP mRNA [1] was 39%. The “Percent inhibition of human CETP mRNA” value in the data set on human CETP mRNA [2] (100 nM) was determined as 59%; in the data set with human CETP mRNA [2] (200 nM), 58%.
On the same counts, the results for “ISIS 349493: 5-10-5 MOE gapmer TGTTTTGGCAGGAGATCTTG (eT*eG*eT*eT*eT*dT*dG*dG*d[5mC]*dA*dG*dG*dA*dG*dA*eT*e[5mC]*eT*eT*eG)” are 67%, 51% and 62%.
“ISIS 349494: 5-10-5 MOE gapmer AGAATTGACCACGACTCCCT (eA*eG*eA*eA*eT*dT*dG*dA*d[5mC]*d[5mC]*dA*d[5mC]*dG*dA*d[5mC]*eT*e[5mC]*e[5mC]*e[5mC]*eT)”: the “% inhibition” value with human CETP mRNA [1] came out at 41%. Further, the “Percent inhibition of human CETP mRNA” value worked out at 85% with human CETP mRNA [2] (100 nM) and 57% in the data set with human CETP mRNA [2] (200 nM).
With “ISIS 349495: 5-10-5 MOE gapmer AGGAATTTCACCATCACTGA (eA*eG*eG*eA*eA*dT*dT*dT*d[5mC]*dA*d[5mC]*d[5mC]*dA*dT*d[5mC]*eA*e[5mC]*eT*eG*eA)”, the “% inhibition” value in the data set on human CETP mRNA [1] came out at 58%. The “Percent inhibition of human CETP mRNA” value is given as 61% in the data set with human CETP mRNA [2] (100 nM) and 74% in the data set with human CETP mRNA [2] (200 nM).
In the same order, the values of “ISIS 349496: 5-10-5 MOE gapmer ACAGAATGTTGCTGGTCTGG (eA*e[5mC]*eA*eG*eA*dA*dT*dG*dT*dT*dG*d[5mC]*dT*dG*dG*eT*e[5mC]*eT*eG*eG)” are 69%, 57% and 87%.
With “ISIS 349497: 5-10-5 MOE gapmer CCTCTTCAAATGTGTAAGCT (e[5mC]*e[5mC]*eT*e[5mC]*eT*dT*d[5mC]*dA*dA*dA*dT*dG*dT*dG*dT*eA*eA*eG*e[5mC]*eT)”, the “% inhibition” value with human CETP mRNA [1] turned out to be 78%. Further, the “Percent inhibition of human CETP mRNA” value in the data set on human CETP mRNA [2] (100 nM) is given as 71%; with human CETP mRNA [2] (200 nM) it was 79%.
On the same counts, the results for “ISIS 349498: 5-10-5 MOE gapmer CTGGACGGTAGTCACGATAT (e[5mC]*eT*eG*eG*eA*d[5mC]*dG*dG*dT*dA*dG*dT*d[5mC]*dA*d[5mC]*eG*eA*eT*eA*eT)” are 80%, 76% and 84%.
Turning to “ISIS 349499: 5-10-5 MOE gapmer CCAAGAGGCTTAAGAAGAGC (e[5mC]*e[5mC]*eA*eA*eG*dA*dG*dG*d[5mC]*dT*dT*dA*dA*dG*dA*eA*eG*eA*eG*e[5mC])”, in the data set on human CETP mRNA [1], the “% inhibition” value is 55%. For the same substance, the “Percent inhibition of human CETP mRNA” value in the data set with human CETP mRNA [2] (100 nM) and with human CETP mRNA [2] (200 nM) was 80% throughout.
For “ISIS 349500: 5-10-5 MOE gapmer ACAGTCTTTGGTGTAATCTG (eA*e[5mC]*eA*eG*eT*d[5mC]*dT*dT*dT*dG*dG*dT*dG*dT*dA*eA*eT*e[5mC]*eT*eG)”, in the data set on human CETP mRNA [1], the “% inhibition” value worked out at 72%. Moreover, the “Percent inhibition of human CETP mRNA” value in the data set with human CETP mRNA [2] (100 nM) amounted to 41%; in the data set on human CETP mRNA [2] (200 nM), 77%.
On the same counts, the results for “ISIS 349501: 5-10-5 MOE gapmer GCTGCTCTCAGTCAAGTTGG (eG*e[5mC]*eT*eG*e[5mC]*dT*d[5mC]*dT*d[5mC]*dA*dG*dT*d[5mC]*dA*dA*eG*eT*eT*eG*eG)” are 67%, 54% and 45%.
Consider “ISIS 349502: 5-10-5 MOE gapmer GAAGCTCTGGATGGACTCGG (eG*eA*eA*eG*e[5mC]*dT*d[5mC]*dT*dG*dG*dA*dT*dG*dG*dA*e[5mC]*eT*e[5mC]*eG*eG)”, for which, in the data set on human CETP mRNA [1], the “% inhibition” value came out at 43%. Also, the figures for the “Percent inhibition of human CETP mRNA” value in the data set with human CETP mRNA [2] (100 nM) and in the data set on human CETP mRNA [2] (200 nM) were 49% and 61%, respectively.
Turning to “ISIS 349503: 5-10-5 MOE gapmer GCGGTGATCATTGACTGCAG (eG*e[5mC]*eG*eG*eT*dG*dA*dT*d[5mC]*dA*dT*dT*dG*dA*d[5mC]*eT*eG*e[5mC]*eA*eG)”, the “% inhibition” value in the data set on human CETP mRNA [1] is reported as 81%. Moreover, the “Percent inhibition of human CETP mRNA” value in the data set on human CETP mRNA [2] (100 nM) was 83%; in the data set on human CETP mRNA [2] (200 nM), 89%.
In the same order, the values of “ISIS 349504: 5-10-5 MOE gapmer TGACCTCAGGGATGCCCACA (eT*eG*eA*e[5mC]*e[5mC]*dT*d[5mC]*dA*dG*dG*dG*dA*dT*dG*d[5mC]*e[5mC]*e[5mC]*eA*e[5mC]*eA)” are 45%, 78% and 92%.
“ISIS 349505: 5-10-5 MOE gapmer CACTACCTCGAGCCGAGACA (e[5mC]*eA*e[5mC]*eT*eA*d[5mC]*d[5mC]*dT*d[5mC]*dG*dA*dG*d[5mC]*d[5mC]*dG*eA*eG*eA*e[5mC]*eA)”: in the data set with human CETP mRNA [1], the “% inhibition” value was 55%. The results for the “Percent inhibition of human CETP mRNA” value with human CETP mRNA [2] (100 nM) and with human CETP mRNA [2] (200 nM) were 98% and 99%, respectively.
In the same order, the values of “ISIS 349507: 5-10-5 MOE gapmer TGATGATGTCGAAGAGGCTC (eT*eG*eA*eT*eG*dA*dT*dG*dT*d[5mC]*dG*dA*dA*dG*dA*eG*eG*e[5mC]*eT*e[5mC])” are 19%, 71% and 73%.
In the same order, the values of “ISIS 349508: 5-10-5 MOE gapmer TCTCGAGTGATAATCTCAGG (eT*e[5mC]*eT*e[5mC]*eG*dA*dG*dT*dG*dA*dT*dA*dA*dT*d[5mC]*eT*e[5mC]*eA*eG*eG)” are 24%, 76% and 86%.
On the same counts, the results for “ISIS 349509: 5-10-5 MOE gapmer CATCTGCAGCAGCAGGAAGC (e[5mC]*eA*eT*e[5mC]*eT*dG*d[5mC]*dA*dG*d[5mC]*dA*dG*d[5mC]*dA*dG*eG*eA*eA*eG*e[5mC])” are 70%, 22% and 83%.
As for “ISIS 349510: 5-10-5 MOE gapmer TCTAGCTCAAGCTCTGGAGG (eT*e[5mC]*eT*eA*eG*d[5mC]*dT*d[5mC]*dA*dA*dG*d[5mC]*dT*d[5mC]*dT*eG*eG*eA*eG*eG)”, in the data set on human CETP mRNA [1], the “% inhibition” value came to 64%. Also, the “Percent inhibition of human CETP mRNA” value was determined as 65% in the data set on human CETP mRNA [2] (100 nM) and 88% in the data set on human CETP mRNA [2] (200 nM).
On the same counts, the results for “ISIS 349514: 5-10-5 MOE gapmer ACGCTGGAGGAGACACCAGG (eA*e[5mC]*eG*e[5mC]*eT*dG*dG*dA*dG*dG*dA*dG*dA*d[5mC]*dA*e[5mC]*e[5mC]*eA*eG*eG)” are 71%, 84% and 92%.
On the same counts, the results for “ISIS 349516: 5-10-5 MOE gapmer CATCTCCGTACTCCTAACCC (e[5mC]*eA*eT*e[5mC]*eT*d[5mC]*d[5mC]*dG*dT*dA*d[5mC]*dT*d[5mC]*d[5mC]*dT*eA*eA*e[5mC]*e[5mC]*e[5mC])” are 65%, 78% and 86%.
